According to patent US12156880B2, “Heterocyclic RIP1 kinase inhibitors” (Rigel Pharmaceuticals, Inc., priority 2021, dated 2024):
Where two headings read alike, the source gives them in different places.

Key:
[1] = system: L929 cells; assay: L929 cell necroptosis assay (TNFa + zVAD, CellTiter-Glo recovery); type: cell-based, murine; conditions: Mus musculus, L929, 18 h, TNFa 2 ng/mL + zVAD-fmk, read-out: L929-CTG-recovery, L929, TNFa + zVAD (IC50)
Procedure, shortened: (§1)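 Human U937 (50K/well, 60 uM zVAD-fmk medium, plated same day) or murine L929 (10K/well, plated 18 h, then 40 uM zVAD-fmk medium) were grown in RPMI with 10% FBS. Both were pretreated with compound for 1 h at 37 °C before TNFa at 2 ng/mL final. Viability was read by CellTiter-Glo luminescence after 18 h.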

[2] = system: U937 cells; assay: U937 cell necroptosis assay (TNFa + zVAD, CellTiter-Glo recovery); type: cell-based; conditions: Homo sapiens, U-937, 18 h, TNFa 2 ng/mL + zVAD-fmk, read-out: U937 Zvad TNF CTG Recovery, U937, TNFa + zVAD (IC50)
Procedure, shortened: as §1

[3] = target: T1, RIPK1 (Homo sapiens, UniProt Q13546); assay: RIPK1 ADP-Glo biochemical kinase assay
T1 sequence (Q13546 1-671): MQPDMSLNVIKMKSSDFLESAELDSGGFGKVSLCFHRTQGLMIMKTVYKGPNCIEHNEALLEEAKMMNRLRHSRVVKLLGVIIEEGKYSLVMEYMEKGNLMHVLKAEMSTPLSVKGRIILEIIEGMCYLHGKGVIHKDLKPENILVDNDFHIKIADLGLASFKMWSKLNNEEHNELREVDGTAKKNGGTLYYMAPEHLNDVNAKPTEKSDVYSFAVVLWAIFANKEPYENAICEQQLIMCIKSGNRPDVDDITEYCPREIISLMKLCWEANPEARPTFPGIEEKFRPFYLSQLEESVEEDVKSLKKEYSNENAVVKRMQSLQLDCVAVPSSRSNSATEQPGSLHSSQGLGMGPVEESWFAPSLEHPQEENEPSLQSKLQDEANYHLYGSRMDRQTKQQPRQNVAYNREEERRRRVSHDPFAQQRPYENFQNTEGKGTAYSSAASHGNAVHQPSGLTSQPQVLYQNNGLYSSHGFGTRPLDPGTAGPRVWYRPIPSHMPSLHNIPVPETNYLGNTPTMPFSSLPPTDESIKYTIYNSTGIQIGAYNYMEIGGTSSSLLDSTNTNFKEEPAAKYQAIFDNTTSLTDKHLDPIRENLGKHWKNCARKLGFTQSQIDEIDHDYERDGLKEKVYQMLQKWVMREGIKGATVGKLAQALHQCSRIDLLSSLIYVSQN
Procedure, shortened: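 RIPK1 at 31 ng/well in Tris pH 7.4 buffer with MgCl2, BSA, DTT and MnCl2, reacted with compounds (duplicate) for 30 min at 30 °C. ADP formed detected by ADP-Glo: 40 min stop/depletion, then 30 min detection reagent at room temperature; luminescence read.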

[4] = read-out: RIPK1 ADP-Glo Kinase (IC50)

Row | SMILES | IC50 [3, 4] | IC50 [1] | IC50 [2] | IC50 [3]
1 | CN1C(=O)[C@@H](NC(=O)n2cc(Cc3cccc(F)n3)cn2)COc2ccc(C#CC(C)(C)C3CCOCC3)cc21 [I-107, (S)-4-((6-Fluoropyridin-2-yl)methyl)-N-(5-methyl-7-(3-methyl-3-(tetrahydro-2H-pyran-4-yl)but-1-yn-1-yl)-4-oxo-2,3,4,5-tetrahydrobenzo[b][1,4]oxazepin-3-yl)-1H-pyrazole-1-carboxamide] | 0.0538 µM | 0.307 µM | 0.002 µM | 
2 | CN1C(=O)[C@@H](NC(=O)n2cc(Cc3cccc(F)n3)cn2)COc2ccc(C#CC3COC3)cc21 [I-108, (S)-4-((6-Fluoropyridin-2-yl)methyl)-N-(5-methyl-7-(oxetan-3-ylethynyl)-4-oxo-2,3,4,5-tetrahydrobenzo[b][1,4]oxazepin-3-yl)-1H-pyrazole-1-carboxamide] | 0.088 µM | 2.09 µM | 0.0128 µM | 
3 | CN1C(=O)[C@@H](NC(=O)n2cc(Cc3cccc(F)n3)cn2)CCc2ccc(C#CC3(O)COC3)cc21 [I-113, (S)-4-((6-Fluoropyridin-2-yl)methyl)-N-(8-((3-hydroxyoxetan-3-yl)ethynyl)-1-methyl-2-oxo-2,3,4,5-tetrahydro-1H-benzo[b]azepin-3-yl)-1H-pyrazole-1-carboxamide] | 0.0118 µM | 0.037 µM | 0.0013 µM | 
4 | CN1C(=O)[C@@H](NC(=O)n2cc(Cc3cccc(F)n3)cn2)CCc2ccc(C#CC(C)(C)O)cc21 [I-114, (S)-4-((6-Fluoropyridin-2-yl)methyl)-N-(8-(3-hydroxy-3-methylbut-1-yn-1-yl)-1-methyl-2-oxo-2,3,4,5-tetrahydro-1H-benzo[b]azepin-3-yl)-1H-pyrazole-1-carboxamide] | 0.0194 µM | 0.0512 µM | 0.001 µM | 
5 | CN1C(=O)[C@@H](NC(=O)n2cc(Cc3cccc(F)n3)cn2)CCc2ccc(C#CC(C)(C)CO)cc21 [I-115, (S)-4-((6-fluoropyridin-2-yl)methyl)-N-(8-(4-hydroxy-3,3-dimethylbut-1-yn-1-yl)-1-methyl-2-oxo-2,3,4,5-tetrahydro-1H-benzo[b]azepin-3-yl)-1H-pyrazole-1-carboxamide] | 0.0283 µM | 0.0385 µM | 0.0005 µM | 
6 | CN1C(=O)[C@@H](NC(=O)n2cc(Cc3cccc(F)n3)cn2)CCc2ccc(C#CC3(O)CCOCC3)cc21 [I-116, (S)-4-((6-Fluoropyridin-2-yl)methyl)-N-(8-((4-hydroxytetrahydro-2H-pyran-4-yl)ethynyl)-1-methyl-2-oxo-2,3,4,5-tetrahydro-1H-benzo[b]azepin-3-yl)-1H-pyrazole-1-carboxamide] | 0.0129 µM | 0.0694 µM | 0.0005 µM | 
7 | CN1C(=O)[C@@H](NC(=O)n2cc(Cc3cccc(F)n3)cn2)CCc2ccc(C#CC3(O)CCC3)cc21 [I-117, (S)-4-((6-Fluoropyridin-2-yl)methyl)-N-(8-((1-hydroxycyclobutyl)ethynyl)-1-methyl-2-oxo-2,3,4,5-tetrahydro-1H-benzo[b]azepin-3-yl)-1H-pyrazole-1-carboxamide] |  | 0.0131 µM | 0.0012 µM | 0.0123 µM

Now from value to compound, other results behind:

Row | IC50 [3, 4] | SMILES | IC50 [1] | IC50 [2] | IC50 [3]
8 | 0.0154 µM | Cc1cccc(Cc2cnn(C(=O)N[C@H]3COc4ccc(C#CC5(O)COC5)cc4N(C)C3=O)c2)n1 [I-103, (S)—N-(7-((3-Hydroxyoxetan-3-yl)ethynyl)-5-methyl-4-oxo-2,3,4,5-tetrahydrobenzo[b][1,4]oxazepin-3-yl)-4-((6-methylpyridin-2-yl)methyl)-1H-pyrazole-1-carboxamide] | 1.29 µM | 0.105 µM | 
9 | 0.0224 µM | CN1C(=O)[C@@H](NC(=O)n2cc(Cc3cccc(F)n3)cn2)COc2ccc(C#CC(C)(C)C)cc21 [I-106, (S)—N-(7-(3,3-Dimethylbut-1-yn-1-yl)-5-methyl-4-oxo-2,3,4,5-tetrahydrobenzo[b][1,4]oxazepin-3-yl)-4-((6-fluoropyridin-2-yl)methyl)-1H-pyrazole-1-carboxamide] | 0.75 µM | 0.0043 µM | 
10 | 0.0263 µM | Cc1cccc(Cc2cnn(C(=O)N[C@H]3COc4ccc(C#CC5COC5)cc4N(C)C3=O)c2)n1 [I-109, (S)—N-(5-Methyl-7-(oxetan-3-ylethynyl)-4-oxo-2,3,4,5-tetrahydrobenzo[b][1,4]oxazepin-3-yl)-4-((6-methylpyridin-2-yl)methyl)-1H-pyrazole-1-carboxamide] | 3.51 µM | 0.188 µM | 
11 | 0.0384 µM | Cc1cccc(Cc2cnn(C(=O)N[C@H]3CCc4ccc(Br)cc4N(C)C3=O)c2)n1 [I-118, (S)—N-(8-Bromo-1-methyl-2-oxo-2,3,4,5-tetrahydro-1H-benzo[b]azepin-3-yl)-4-((6-methylpyridin-2-yl)methyl)-1H-pyrazole-1-carboxamide] | 7.67 µM | 0.256 µM | 
12 | 0.0171 µM | Cc1cccc(Cc2cnn(C(=O)N[C@H]3CCc4ccc(C#CC(C)(C)O)cc4N(C)C3=O)c2)n1 [I-119, (S)—N-(8-(3-Hydroxy-3-methylbut-1-yn-1-yl)-1-methyl-2-oxo-2,3,4,5-tetrahydro-1H-benzo[b]azepin-3-yl)-4-((6-methylpyridin-2-yl)methyl)-1H-pyrazole-1-carboxamide] | 0.407 µM | 0.0166 µM | 
13 | 0.0261 µM | CN1C(=O)[C@@H](NC(=O)n2cc(Cc3cccc(F)n3)cn2)CCc2c(F)cc(C#CC(C)(C)O)cc21 [I-121, (S)—N-(6-Fluoro-8-(3-hydroxy-3-methylbut-1-yn-1-yl)-1-methyl-2-oxo-2,3,4,5-tetrahydro-1H-benzo[b]azepin-3-yl)-4-((6-fluoropyridin-2-yl)methyl)-1H-pyrazole-1-carboxamide] | 11 µM | 0.174 µM | 
14 | 0.0325 µM | CN1C(=O)[C@@H](NC(=O)n2cc(Cc3cccc(F)n3)cn2)CCc2c(F)cc(C#CC(C)(C)CO)cc21 [I-122, (S)—N-(6-Fluoro-8-(4-hydroxy-3,3-dimethylbut-1-yn-1-yl)-1-methyl-2-oxo-2,3,4,5-tetrahydro-1H-benzo[b]azepin-3-yl)-4-((6-fluoropyridin-2-yl)methyl)-1H-pyrazole-1-carboxamide] | 8.67 µM | 0.0974 µM | 
15 | 0.02 µM | CN1C(=O)[C@@H](NC(=O)c2cc(Cc3csc(C(F)(F)F)n3)ccn2)COc2ccc(C#CC(C)(C)O)cc21 [I-123, (S)—N-(7-(3-hydroxy-3-methylbut-1-yn-1-yl)-5-methyl-4-oxo-2,3,4,5-tetrahydrobenzo[b][1,4]oxazepin-3-yl)-4-((2-(trifluoromethyl)thiazol-4-yl)methyl)picolinamide] | 0.853 µM | 0.0978 µM | 
16 | 0.0304 µM | CN1C(=O)[C@@H](NC(=O)c2cc(Cc3csc(C(F)(F)F)n3)ccn2)COc2ccc(C#CC3(O)COC3)cc21 [I-124, (S)—N-(7-((3-hydroxyoxetan-3-yl)ethynyl)-5-methyl-4-oxo-2,3,4,5-tetrahydrobenzo[b][1,4]oxazepin-3-yl)-4-((2-(trifluoromethyl)thiazol-4-yl)methyl)picolinamide] | 1.59 µM | 0.113 µM | 
17 | 0.0234 µM | CN1C(=O)[C@@H](NC(=O)c2cc(Oc3cccnc3F)ccn2)COc2ccc(C#CC3CCOCC3)cc21 [I-125, (S)-4-((2-fluoropyridin-3-yl)oxy)-N-(5-methyl-4-oxo-7-((tetrahydro-2H-pyran-4-yl)ethynyl)-2,3,4,5-tetrahydrobenzo[b][1,4]oxazepin-3-yl)picolinamide] | 0.0115 µM | 0.0009 µM | 
